# Source: a melting point compilation (Tetko et al.; mined from patent text by program, amines drawn as free bases though some values may be those of a salt)
row,SMILES,melting point [°C]
1,COC(=O)CN1CCC[C@H]1C(=O)N[C@@H](Cc1ccccc1)C(=O)N1CCC[C@H]1C(=O)O,145 to 148
2,CC(=O)Oc1ccccc1-c1nn2cc(-c3ccccc3)nc2s1,177
3,CSc1nc(Cl)c(-c2c(F)cc(F)cc2F)c(Cl)n1,75
4,CC(=C1SC(=O)NC1=O)c1ccc(S(=O)(=O)CCc2ccccc2)cc1,201 to 202
5,CN1N=C(c2ccccc2)C(C)(Cc2ccccc2)NC1=O (stereo not given),174 to 175
6,CCCCCCCCS(=O)(=O)C(Cl)S(N)(=O)=O (stereo not given),73 to 74
7,CC(C)c1ccc(NC=CS(=O)(=O)F)cc1,41 to 43
8,COc1cc(C2C3=C(COC3=O)N(C)c3cc4c(cc32)OCO4)cc(OC)c1OC (stereo not given),226
9,CCCCc1nc(S(=O)(=O)c2ccccc2)c(C(=O)O)n1Cc1ccc(-c2ccccc2C(=O)O)cc1,140
10,O=c1ccc(=O)c2c(=O)c3ccccc3c(=O)c1=2,211 to 213
11,CNc1nc(-c2cncc(C#Cc3cccnc3)c2)c2cc(OC)c(OC)cc2n1,208 to 211
12,CC(C)(C)OC(=O)N[C@@H](CC(=O)O)C(=O)OC(C)(C)C,97 to 99
13,Cc1c(C(C)(C)C(=O)O)nc2ccc(NCCCN3CCC(OC(c4ccccc4)c4ccccc4)CC3)nn12,219 to 220
14,COc1c(OCC(F)(F)F)ccnc1CSc1nc2ccc(C(F)(F)F)cc2[nH]1,80 to 82
15,CCOC(=O)C(NC(=O)OCc1ccccc1)C(=O)OCC,36.5 to 37
16,COc1cccc(CC(=O)O)c1OCCCc1cc(OC(C)C)nn1Cc1ccc(C(F)(F)F)cc1,116 to 117
17,CCC(CC)Nc1cc(C)nc(Oc2c(C)cc(C)cc2C)c1C(=O)OC,98 to 102
18,COCCN(CCOC)C(=O)c1ccc([N+](=O)[O-])cc1[N+](=O)[O-],89
19,OCCc1nccn1CCCc1ccc(O)cc1,116 to 117
20,O=C(CCc1cnoc1-c1ccccc1)Nc1ccc(CP(=O)(O)O)cc1,162 to 164
21,Oc1ccc(C=C2c3cc(O)c(O)cc3-c3ccc(O)c(O)c32)cc1,228 to 230
22,CC(SCc1nccc2ccccc12)C(=O)O (stereo not given),153 to 156
23,Cc1cc(C(=N)NO)cc(C)c1OCCCc1ccco1,100 to 101

row,SMILES,melting point [°C]
1,O=c1oc2c(c(O)c1Sc1nc3ccccc3o1)c(=O)n(Cc1ccccc1)c1ccccc21,196 to 198
2,COC(=O)CCc1cc2cc(Cl)c(Cl)cc2[nH]1,142
3,CCOC(=O)CCNC(=O)N(CCCO)c1ccc(-c2ccc(C#N)cc2)cc1,102 to 104
4,COC(=O)c1ccc(SCc2cccc(Cl)c2)cn1,75 to 77
5,NNC(=O)c1ccccc1CS(N)(=O)=O,221 to 222
6,CCCC(=CC(=O)O)CCC,20
7,Cc1nn(C)c(C2=NCCN2)c1[N+](=O)[O-],143 to 145
8,Cc1nc(N)sc1S(=O)(=O)N(CCO)CCO,141
9,CCCCCCc1ccc2c(c1)c1cc(CCCCCC)ccc1n2CCN,56
10,FC(F)(F)c1cccc(-c2ccn3nccc3n2)c1,117 to 118
11,O=C(NNS(=O)(=O)c1ccccc1)c1cccc2cccnc12,173 to 175
12,CC1=Nc2c(nc(N)[nH]c2=O)NC1C (stereo not given),> 300
13,Cc1oc(-c2ccccc2)nc1COc1cccc(CSc2cccc(CC(=O)O)c2)c1,81 to 82
14,CC(C)CNC(=O)C=CC=Cc1ccc2c(c1)OCO2,156 to 160
15,O=C(O)Cc1c(-c2ccc(Cl)cc2)nn(-c2ccccc2)c1-c1ccc(Cl)cc1,204 to 206
16,CC(O)C=CS(C)(=O)=O (stereo not given),70 to 72
17,O=C(O)COc1cc2c(=O)cc(C(=O)O)[nH]c2ccc1=O,> 270
18,CC(=O)Nc1ccc(CC[C@](O)(CC(=O)O)C(C)C)cc1,119 to 120
19,CC(O)CNCc1nc2cc(-c3ccccc3)nnc2c2ccccc12 (stereo not given),161 to 162
20,N#Cc1ccc(Cn2nc(-c3ccccc3O)nc2-c2ccccc2O)cc1,147 to 149
21,CCN1CCc2nc(N3CCNCC3)ncc2C1=O,205 to 210
22,CNC(=S)NS(=O)(=O)c1cc(CCNC(=O)/C=C/c2cccs2)ccc1OCc1ccccc1,94
23,O=C(c1ccccc1)c1[nH]c2cc(Cl)ccc2c1CC(=O)N1CCOCC1,188 to 190

row,SMILES,melting point [°C]
1,CCOC(=O)c1ccc(NC(=O)[C@H](CO)NS(=O)(=O)c2ccc(Cl)cc2)cc1,157 to 160
2,CCc1nn(CC(=O)NN)c(CC)c1Oc1cc(Cl)cc(Cl)c1,> 250
3,CCn1cc(C(=O)O)c(=O)c2cc(F)c(-c3ccnc(CN)n3)c(F)c21,285 to 289
4,O=C1NC2CCC(=O)N2[C@H]1CO (stereo not given in full),61 to 75
5,O=C(CNC(=O)c1ccc(F)cc1)c1ccoc1,142 to 143
6,CCCCN(CCCC)C(=O)CN1CC(c2ccc3c(c2)OCO3)C(C(=O)O)C1c1ccncc1 (stereo not given),131 to 132
7,O=C(O)Cn1c(=O)c(=O)[nH]c2cc([N+](=O)[O-])c(-n3ccc(CN4CCN(C(c5ccccc5)c5ccccc5)CC4)c3)cc21,> 245
8,Cn1c2ccccc2c2cccc(N)c21,90 to 92
9,CCCCc1nc2ccsc2n1Cc1ccc(-c2ccccc2C(=O)O)cc1,203
10,CC(C)CC(=O)NC(=O)c1nnn(Cc2ccccc2)c1NC(=O)CC(C)C,125 to 128
11,CC(C)CC(C)c1ccccc1NC(=O)c1cn(C)cc1C(F)(F)F (stereo not given),83 to 85
12,CCOC(=O)Cn1c(=O)[nH]c(=O)c2ccc(Cl)cc21,242 to 243
13,CCOC(=O)/C=C(C)/C=C/C=C(C)/C=C(/F)c1c(C)cc(OC)c(C)c1C,74 to 87
14,COc1ccc(C(=O)Nc2c(C)c(C)c3c(c2C)C(c2ccc(C(C)C)cc2)C(C)(C)O3)cc1OC (stereo not given),171 to 173
15,Oc1cc(-c2ncc(C(F)(F)F)cc2F)c(F)cc1Cl,94 to 96
16,COCc1cc(N(C)C)ncn1,42 to 44
17,c1cn(-c2nc(N3CCOCC3)nc(N3CCOCC3)n2)cn1,248 to 250
18,Cc1nc(-c2[nH]c3ccccc3c2C#N)no1,209 to 212
19,C[C@@H](NC(=O)[C@@H](NC(=O)[C@H](C/C=C/c1ccc(-c2ccccc2)c(F)c1)CC(=O)OC(C)(C)C)C(C)(C)C)c1ccccc1,165 to 168
20,Cc1c(Sc2ccc(Cl)cc2)c2cc(S(C)(=O)=O)ccc2n1CC(=O)O,185 to 187
21,Cc1noc(NS(=O)(=O)c2ccccc2-c2ccc(-c3ncco3)cc2Cc2ncc(-c3ccccc3)o2)c1C,120 to 128
22,NS(=O)(=O)c1ccc(-c2cccc(-c3nc(-c4ccc(C(F)(F)F)cc4)cc(C(F)(F)F)n3)c2)s1,204
23,O=C(O)c1cc(-n2c(-c3ccccc3)cc3c4ccccc4ccc32)ccc1O,242

# The next lines start with the values.
row,melting point [°C],SMILES
1,158 to 160,O=C(CC1c2ccccc2C(=O)N1C1CCCCC1)N1CCCCC1 (stereo not given)
2,150,COc1ccc(Br)cc1S(=O)(=O)NCCCl
3,256 to 257,O=C1Cc2c(cc3ccccc3c2Br)C(c2ccccc2Cl)N1 (stereo not given)
4,262 to 264,O=C1CCC(N2Cc3cc(CNC(=O)Nc4ccc(F)cc4)ccc3C2=O)C(=O)N1 (stereo not given)
5,55 to 56,COc1ccc(C2=NN(CCCCCCBr)C(=O)[C@H]3CC=CC[C@@H]23)cc1OC (relative stereo)
6,87 to 88,CCOC(=O)c1cnc2ccc(Cl)cc2c1Cl
7,166 to 167,COC(=O)c1c(C(=O)OC)c(-c2ccc(OC)cc2)c2c3c(ccc2c1OC)OCO3
8,293 to 296,COc1nc(OC)nc(-n2c(N)nc3cc(Cl)ccc32)n1
9,133 to 137,C#CC1(O)CCC2C3=C(CCC21C)c1ccc(OC)cc1CC3 (stereo not given)
10,59 to 63,CN(C)C(=O)n1ccc(-c2ccc(Oc3ccc(F)cc3)cc2)n1
11,108,CN1C(=O)CCC2=C1CCc1cc(F)ccc12
12,116 to 118,O=C1c2ccc(Cl)cc2C(O)N1CCO[N+](=O)[O-] (stereo not given)
13,78 to 80,"CN(C)CCCC(=O)N1CCC(C2c3ncc(Br)cc3CCc3cc(Cl)cc(Br)c32)CC1 (single isomer, unassigned; (+))"
14,305 to 307,Oc1nc2ccc(Br)cc2[nH]1
15,43 to 45,COC(=O)c1ccccc1-c1ccc(COS(C)(=O)=O)cc1
16,93 to 95,COC(=O)c1cc(OC)cc(OC)c1N

row,melting point [°C],SMILES
1,198 to 201,Cc1nn(-c2cc(OC(C)C(=O)NS(=O)(=O)c3cccc4c3OC(C)(C)C4)c(Cl)cc2F)c(=O)n1C(F)F (stereo not given)
2,196,CN1C(=O)c2cnc(-c3ccccc3)nc2N(C(=O)CN2CCCC2)c2ccccc21
3,153 to 154,COc1ccc(N2CCN(c3c(C)c(C)c4c(c3C)C(=O)C(C)(C)O4)CC2)cc1OC
4,197 to 200,NCc1cn(C2CCc3ccccc3C2)c(=S)[nH]1 (stereo not given)
5,212 to 214,CN(C)C(=O)N[C@H]1CC[C@H](CCN2CCN(c3cccc(Cl)c3Cl)CC2)CC1
6,147 to 148,COc1ccc(CN2C(=O)C3(COc4cc5c(cc43)OCO5)c3ccccc32)cc1 (stereo not given)
7,88 to 89,COc1cc(O)ccc1CCCc1ccc(O)cc1
8,176 to 178,CCC(C)n1cc(Cl)nc(N2CCc3cc(OC)cc(C)c32)c1=O (stereo not given)
9,237 to 238,CNc1cc(N2CCN(C(=O)C3CCN(S(=O)(=O)c4ccc(C(F)(F)F)cc4)CC3)CC2)ncn1
10,151 to 153,CC1(C)CCCN(CCNc2ccnc3cc(Cl)ccc23)C1
11,126 to 128,C=CCN(C)c1nc(-c2ccc(OC)cc2)nc2sc(C#N)c(C)c12
12,70 to 71,CN1CCN(c2cccc3ccc(OS(=O)(=O)C(F)(F)F)cc23)CC1
13,89 to 90,CCc1noc(-c2cn(-c3cccc(OC)c3)cn2)n1
14,135,COc1cc(N(C)C)ccc1CN1C(=O)C(C)(c2ccccc2Cl)c2cc(Cl)ccc21 (stereo not given)
15,211 to 212,O=C1Cc2cc(C(=O)[C@H]3CC[C@H]3C(=O)O)ccc2N1 (relative stereo)
